{"source": "paper PMC7292537", "about": "“BGAL1 depletion boosts the level of β‐galactosylation of N‐ and O‐glycans in N. benthamiana” (Plant Biotechnology Journal, 2020)", "system": "T1, NbBGAL1 (SPα-BGAL1)", "T1 construct": "mature residues 25-846 (GH35 + Gal-lectin domain), own signal peptide replaced by barley alpha-amylase signal peptide, C-terminal StrepII tag (WSHPQFEK); transiently expressed in N. benthamiana, apoplastic fluid not purified; 95 kDa full length plus 48 kDa GH35 and 38 kDa truncated forms; precursor 846 aa", "assay": "fluorescein release, Hanes-Woolf and Lineweaver-Burk", "format": "biochemical, Nicotiana benthamiana", "conditions": "read-out: apparent KM; apoplastic fluid with overexpressed enzyme; 50 mM MES pH 5.0, 25 °C, 1 h; FDG 0-250 µM (printed unit mM doubtful, perhaps µM); unit of the source corrected; heading: apparent KM"}
{"smiles": "O=C1OC2(c3ccc(O[C@@H]4O[C@H](CO)[C@H](O)[C@H](O)[C@H]4O)cc3Oc3cc(O[C@@H]4O[C@H](CO)[C@H](O)[C@H](O)[C@H]4O)ccc32)c2ccccc21", "note": "[FDG, fluorescein di-β-D-galactopyranoside]", "values": [{"measurement": "Km", "result": 0.0298, "unit": "mM"}]}
